ChEMBL document CHEMBL1201862, “PubChem BioAssay data set” (2004)
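Step 1: Grow cells in 96-well plates. Step 2: Expose to compound for 48 hours at 5 concentrations. Step 3: Interpolate endpoints linearly; if unreached, use highest concentration. Abbreviation: GI50, concentration required for 50% inhibition of growth.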 Active and inactive are the calls of the source. No stated cut-off is given here; in the data, active = GI50 up to about 1.1 µM and inactive = higher.

Key:
Assay in all cases: DTP human tumour cell line panel, 48 h
SW-620 = test system: SW-620
RPMI-8226 = test system: RPMI-8226
T47D = test system: T47D
K562 = test system: K562
SK-MEL-2 = test system: SK-MEL-2
ACHN = test system: ACHN
A549 = test system: A549
U-251 = test system: U-251
HCT-116 = test system: HCT-116
HL-60 = test system: HL-60
LOX IMVI = test system: LOX IMVI
UACC-257 = test system: UACC-257
NCI-H23 = test system: NCI-H23
MOLT-4 = test system: MOLT-4
786-0 = test system: 786-0
MCF7 = test system: MCF7
SK-OV-3 = test system: SK-OV-3
Hs-578T = test system: Hs-578T
SF-268 = test system: SF-268
RXF 393 = test system: RXF 393
SF-539 = test system: SF-539
TK-10 = test system: TK-10
NCI-H522 = test system: NCI-H522
Malme-3M = test system: Malme-3M
M14 = test system: M14
KM12 = test system: KM12
CAKI-1 = test system: CAKI-1
MDA-MB-231 = test system: MDA-MB-231
OVCAR-8 = test system: OVCAR-8
SK-MEL-28 = test system: SK-MEL-28
UO-31 = test system: UO-31
EKVX = test system: EKVX
HOP-92 = test system: HOP-92
DU-145 = test system: DU-145
HOP-62 = test system: HOP-62
BT-549 = test system: BT-549
SK-MEL-5 = test system: SK-MEL-5
NCI/ADR-RES = test system: NCI/ADR-RES
HCT-15 = test system: HCT-15
MDA-N = test system: MDA-N
CCRF-CEM = test system: CCRF-CEM
OVCAR-4 = test system: OVCAR-4
MDA-MB-435 = test system: MDA-MB-435
NCI-H460 = test system: NCI-H460
UACC-62 = test system: UACC-62
COLO 205 = test system: COLO 205
OVCAR-5 = test system: OVCAR-5
HT-29 = test system: HT-29
SF-295 = test system: SF-295
SN12C = test system: SN12C
PC-3 = test system: PC-3
SNB-75 = test system: SNB-75
OVCAR-3 = test system: OVCAR-3
HCC 2998 = test system: HCC 2998
SR = test system: SR
IGROV-1 = test system: IGROV-1
SNB-19 = test system: SNB-19
NCI-H226 = test system: NCI-H226
A498 = test system: A498

Measured: GI50

Fc1cccc(F)c1C1SCc2nc3ccc(Cl)cc3n21 (stereo unspecified)
inactive: SW-620 > 100 µM | RPMI-8226 82.4 µM | T47D 95.3 µM | K562 51.1 µM | SK-MEL-2 > 100 µM | ACHN > 100 µM | A549 > 100 µM | U-251 > 100 µM | HCT-116 > 100 µM | HL-60 40.5 µM | LOX IMVI > 100 µM | UACC-257 > 100 µM | NCI-H23 > 100 µM | MOLT-4 > 100 µM | 786-0 > 100 µM | MCF7 > 83 µM | SK-OV-3 > 100 µM | Hs-578T > 100 µM | SF-268 > 100 µM | RXF 393 > 100 µM | SF-539 > 100 µM | TK-10 > 100 µM | NCI-H522 > 100 µM | Malme-3M > 100 µM | M14 > 100 µM | KM12 63 µM | CAKI-1 > 100 µM | MDA-MB-231 > 100 µM | OVCAR-8 > 100 µM | SK-MEL-28 > 100 µM | UO-31 > 100 µM | EKVX > 100 µM | HOP-92 > 100 µM | DU-145 > 100 µM | HOP-62 > 100 µM | BT-549 > 100 µM | SK-MEL-5 85.3 µM | NCI/ADR-RES > 100 µM | MDA-N > 100 µM | CCRF-CEM > 100 µM | OVCAR-4 85.3 µM | MDA-MB-435 > 100 µM | NCI-H460 > 100 µM | UACC-62 > 100 µM | COLO 205 > 100 µM | OVCAR-5 > 100 µM | HT-29 > 85.7 µM | SF-295 > 100 µM | SN12C > 100 µM | PC-3 > 82.8 µM | SNB-75 41.1 µM | OVCAR-3 > 100 µM | HCC 2998 > 100 µM | SR 48.4 µM | IGROV-1 > 100 µM | SNB-19 > 100 µM
> 100 µM: HCT-15

COc1ccc(C(OCC2OC(n3ccc(NC(=O)c4ccccc4)nc3=O)CC2OP2(=S)SCCS2)(c2ccccc2)c2ccc(OC)cc2)cc1 (stereo unspecified)
33.5 µM: HCT-15
inactive: SW-620 18.4 µM | RPMI-8226 > 100 µM | T47D 36.3 µM | K562 > 100 µM | SK-MEL-2 43.6 µM | ACHN 18.6 µM | A549 56.2 µM | U-251 28 µM | HCT-116 32.9 µM | LOX IMVI 14.9 µM | UACC-257 30.1 µM | NCI-H23 43.2 µM | MOLT-4 37.5 µM | 786-0 24.4 µM | MCF7 37.1 µM | SK-OV-3 25.2 µM | Hs-578T 24.1 µM | SF-268 21.2 µM | RXF 393 33.2 µM | TK-10 > 100 µM | NCI-H522 22.1 µM | Malme-3M 25.4 µM | M14 24.9 µM | MDA-MB-231 31.1 µM | OVCAR-8 27.2 µM | SK-MEL-28 30 µM | UO-31 > 100 µM | EKVX 34.5 µM | DU-145 32.9 µM | HOP-62 20.7 µM | BT-549 25.9 µM | SK-MEL-5 22.4 µM | NCI/ADR-RES > 10 µM | NCI-H226 34.4 µM | MDA-N > 10 µM | OVCAR-4 30.1 µM | MDA-MB-435 30.1 µM | NCI-H460 33.6 µM | UACC-62 16.7 µM | COLO 205 > 10 µM | OVCAR-5 36.8 µM | HT-29 24.7 µM | SF-295 30.7 µM | SN12C 21.1 µM | PC-3 17.8 µM | SNB-75 24.5 µM | OVCAR-3 22.6 µM | SR 48.1 µM | IGROV-1 33.5 µM | SNB-19 29.6 µM

Cc1c(F)c(NC(=O)CN(C)C)c2c(=O)cc(-c3ccc(NC(=O)CN(C)C)c(F)c3)oc2c1F
inactive: SW-620 16.2 µM | RPMI-8226 16.8 µM | T47D 24.2 µM | K562 13.6 µM | SK-MEL-2 19.2 µM | ACHN 15.4 µM | A549 18.6 µM | U-251 14.2 µM | HCT-116 12.9 µM | HL-60 17.1 µM | LOX IMVI 14.9 µM | UACC-257 21.9 µM | NCI-H23 17.3 µM | MOLT-4 11.2 µM | 786-0 15.9 µM | MCF7 13.4 µM | SK-OV-3 16.8 µM | Hs-578T 26.9 µM | SF-268 16.6 µM | RXF 393 12.8 µM | SF-539 17.3 µM | TK-10 7.57 µM | NCI-H522 17.5 µM | Malme-3M 26.3 µM | M14 16.3 µM | KM12 13.4 µM | CAKI-1 10.9 µM | MDA-MB-231 13.6 µM | OVCAR-8 17.8 µM | SK-MEL-28 21.5 µM | A498 1.35 µM | UO-31 13.6 µM | DU-145 13.6 µM | HOP-62 16.6 µM | BT-549 17.9 µM | SK-MEL-5 15 µM | NCI/ADR-RES 14.8 µM | NCI-H226 12.6 µM | MDA-N 16.4 µM | CCRF-CEM 21.5 µM | OVCAR-4 18.9 µM | MDA-MB-435 12.6 µM | NCI-H460 9.35 µM | UACC-62 19.1 µM | COLO 205 10.9 µM | OVCAR-5 22.8 µM | HT-29 14.6 µM | SF-295 15.5 µM | SN12C 17.8 µM | PC-3 16 µM | SR 1.5 µM | IGROV-1 15.7 µM | SNB-19 16 µM
14.5 µM: HCT-15
active: HCC 2998 0.678 µM

O=C1/C(=C/c2ccc(OC(=O)c3ccccc3)cc2)CCC/C1=C\c1ccc(OC(=O)c2ccccc2)cc1
> 100 µM: HCT-15
inactive: SW-620 > 100 µM | RPMI-8226 > 100 µM | T47D > 100 µM | SK-MEL-2 > 100 µM | ACHN > 100 µM | A549 > 100 µM | U-251 > 100 µM | HCT-116 > 100 µM | HL-60 > 100 µM | LOX IMVI > 100 µM | UACC-257 > 100 µM | NCI-H23 > 100 µM | MOLT-4 > 100 µM | 786-0 > 100 µM | MCF7 > 100 µM | Hs-578T > 100 µM | SF-268 > 100 µM | SF-539 > 100 µM | TK-10 > 100 µM | NCI-H522 > 100 µM | M14 > 100 µM | KM12 > 100 µM | CAKI-1 > 100 µM | MDA-MB-231 > 100 µM | OVCAR-8 > 100 µM | SK-MEL-28 > 100 µM | UO-31 > 100 µM | EKVX > 100 µM | HOP-92 > 100 µM | DU-145 > 100 µM | HOP-62 > 100 µM | BT-549 > 100 µM | SK-MEL-5 > 100 µM | NCI/ADR-RES > 100 µM | MDA-N > 100 µM | CCRF-CEM > 100 µM | OVCAR-4 > 100 µM | MDA-MB-435 > 100 µM | NCI-H460 > 100 µM | UACC-62 > 100 µM | COLO 205 > 100 µM | OVCAR-5 > 100 µM | HT-29 > 100 µM | SF-295 > 100 µM | SN12C > 100 µM | PC-3 > 100 µM | SNB-75 93.3 µM | OVCAR-3 > 100 µM | HCC 2998 > 100 µM | SR > 100 µM | IGROV-1 > 100 µM | SNB-19 > 100 µM
